The target in one experiment is CDK-2/cyclin A (Homo sapiens, UniProt P24941). The experiment in a line: CDK inhibition assay, CDK-2/cyclin A against Histone HI, 33P-ATP. It counts as biochemical. The settings on record: at 500 nM. The protocol: Compounds were evaluated for their ability to inhibit CDK2 and CDK9 as given below.
CDK-2/cyclin A (5-20 mU diluted in 50 mM Hepes pH 7.5, 1 mM DTT, 0.02% Brij35, 100 mM NaCl) was assayed against Histone HI in a final volume of 25.5 µl containing 50 mM Hepes pH7.5, 1 mM DTT, 0.02% Brij35, 100 mM NaCl, Histone HI (1 mg/ml), 10 mM magnesium acetate and 0.02 mM [33P-g-ATP](500-1000 cpm/pmole) and incubated for 30 min at room temperature. Assays were stopped by addition of 5 µl of 0.5 M (3%) orthophosphoric acid and then harvested onto P81 Unifilter plates with a wash buffer of 50 mM orthophosphoric acid.

The target of a further experiment is CDK-9/Cyclin T1 (Homo sapiens, UniProt P50750). In words: CDK inhibition assay, CDK-9/Cyclin T1 against substrate peptide, 33P-ATP. Type of experiment: biochemical. The protocol: (50-1000 cpm/pmole) and incubated for 30 min at room temperature. Assays were stopped by addition of 5 µl of 0.5 M (3%) orthophosphoric acid and then harvested onto P81 Unifilter plates with a wash buffer of 50 mM orthophosphoric acid.

Where [1] appears, read: Table-7, read-out: In vitro CDK2 % of inhibition.
The mark [2] stands for this setting: at 500 nM, Table-7, read-out: In vitro CDK9 % of inhibition.
The mark [3] stands for this setting: Table-6, read-out: In vitro CDK2 % of inhibition.
The mark [4] stands for this setting: read-out: inhibition against CDK2.
Setting [5] is: at 500 nM, Table-6, read-out: In vitro CDK9 % of inhibition.
Where [6] appears, read: at 500 nM, read-out: inhibition against CDK9.

Where two headings read alike, the source gives them in different places. Bounds are passed on as bounds.

Sequence of CDK-9/Cyclin T1 (P50750 whole entry): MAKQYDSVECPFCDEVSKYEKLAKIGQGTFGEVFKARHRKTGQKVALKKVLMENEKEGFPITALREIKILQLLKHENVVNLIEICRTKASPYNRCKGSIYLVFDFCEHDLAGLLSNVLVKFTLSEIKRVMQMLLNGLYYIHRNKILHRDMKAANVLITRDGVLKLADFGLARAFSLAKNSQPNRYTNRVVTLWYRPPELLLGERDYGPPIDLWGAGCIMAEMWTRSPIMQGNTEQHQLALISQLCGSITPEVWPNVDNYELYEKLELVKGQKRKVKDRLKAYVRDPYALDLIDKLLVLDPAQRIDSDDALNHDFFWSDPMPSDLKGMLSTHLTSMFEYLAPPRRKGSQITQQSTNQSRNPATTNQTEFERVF
Sequence of CDK-9/Cyclin T1 (O60563 whole entry partner): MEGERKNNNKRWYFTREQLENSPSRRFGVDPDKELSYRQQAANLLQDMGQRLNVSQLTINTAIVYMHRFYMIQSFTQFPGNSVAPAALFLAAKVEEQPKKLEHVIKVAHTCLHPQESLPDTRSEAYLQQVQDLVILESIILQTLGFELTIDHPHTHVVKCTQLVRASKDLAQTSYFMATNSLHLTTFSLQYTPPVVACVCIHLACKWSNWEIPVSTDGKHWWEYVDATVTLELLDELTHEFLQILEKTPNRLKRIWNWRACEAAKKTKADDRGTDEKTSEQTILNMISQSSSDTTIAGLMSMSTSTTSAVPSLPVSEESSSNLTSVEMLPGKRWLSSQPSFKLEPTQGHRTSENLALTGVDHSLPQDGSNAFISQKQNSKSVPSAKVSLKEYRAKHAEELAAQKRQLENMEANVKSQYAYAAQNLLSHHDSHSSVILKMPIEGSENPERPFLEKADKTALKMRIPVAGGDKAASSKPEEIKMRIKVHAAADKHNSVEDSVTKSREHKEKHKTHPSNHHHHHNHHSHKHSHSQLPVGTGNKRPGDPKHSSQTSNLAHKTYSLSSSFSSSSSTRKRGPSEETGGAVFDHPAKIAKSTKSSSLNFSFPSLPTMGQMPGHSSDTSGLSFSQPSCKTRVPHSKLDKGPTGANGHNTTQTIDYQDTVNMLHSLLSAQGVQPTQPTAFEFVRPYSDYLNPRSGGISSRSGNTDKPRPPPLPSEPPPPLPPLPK

In the case of `CSc1ccccc1-c1cnc2[nH]cc(-c3ccnc(NC4CCCCCC4)n3)c2c1` [1A49, N-cycloheptyl-4-(5-(2-(methylthio)phenyl)-1H-pyrrolo[2,3-b]pyridin-3-yl)pyrimidin-2-amine], the inhibition at 0.5 µM at CDK-2/cyclin A (setting [1]) and on CDK-9/Cyclin T1 (setting [2]) was less than 50% each time.
As to `CSc1ccccc1-c1cnc2[nH]cc(-c3ccnc(NC4CC4)n3)c2c1` [1A9, N-cyclopropyl-4-(5-(2-(methylthio)phenyl)-1H-pyrrolo[2,3-b]pyridin-3-yl)pyrimidin-2-amine], the inhibition at 0.5 µM on CDK-2/cyclin A (setting [3]), at CDK-2/cyclin A (setting [4]), on CDK-9/Cyclin T1 (setting [5]) and at CDK-9/Cyclin T1 (setting [6]) was greater than 70% throughout.
In the case of `c1cc(-c2c[nH]c3ncc(-c4ccoc4)cc23)nc(NC2CCCC2)n1` [1A36, N-cyclopentyl-4-(5-(furan-3-yl)-1H-pyrrolo[2,3-b]pyridin-3-yl)pyrimidin-2-amine], the inhibition at 0.5 µM at CDK-2/cyclin A (setting [3]), at CDK-2/cyclin A (setting [4]), on CDK-9/Cyclin T1 (setting [5]) and on CDK-9/Cyclin T1 (setting [6]) was greater than 50% in each case.
`CCc1ccccc1-c1cnc2[nH]cc(-c3ccnc(NCCc4ccccc4)n3)c2c1` [1B10, 4-(5-(2-ethylphenyl)-1H-pyrrolo[2,3-b]pyridin-3-yl)-N-phenethylpyrimidin-2-amine]: the inhibition at 0.5 µM at CDK-2/cyclin A (setting [1]), on CDK-2/cyclin A (setting [4]), at CDK-9/Cyclin T1 (setting [2]) and at CDK-9/Cyclin T1 (setting [6]) was greater than 50% throughout.
As for `O=Cc1ccc(-c2cnc3[nH]cc(-c4ccnc(NC5CC5)n4)c3c2)cc1` [1A13, 4-(3-(2-(cyclopropylamino)pyrimidin-4-yl)-1H-pyrrolo[2,3-b]pyridin-5-yl)benzaldehyde], the inhibition at 0.5 µM on CDK-2/cyclin A (setting [3]), at CDK-2/cyclin A (setting [4]), on CDK-9/Cyclin T1 (setting [5]) and at CDK-9/Cyclin T1 (setting [6]) was greater than 70% in each case.
Turning to `CN1CC[C@H](c2c(O)cc(O)c3c(=O)cc(-c4ccccc4Cl)oc23)[C@H](O)C1` [Flavopyr idol, flavopiridol, reference compound], the inhibition – broadly, the share of the control response that was lost under treatment – at 0.5 µM at CDK-2/cyclin A (setting [3]) was greater than 70%; at CDK-9/Cyclin T1 (read-out: In vitro CDK9 % of inhibition, at 500 nM, Table-6), greater than 70%.
`c1ccc(CCNc2nccc(-c3c[nH]c4ncc(-c5nccc6ccccc56)cc34)n2)cc1` [1B20, 4-(5-(isoquinolin-1-yl)-1H-pyrrolo[2,3-b]pyridin-3-yl)-N-phenethylpyrimidin-2-amine]: the inhibition at 0.5 µM at CDK-2/cyclin A (setting [1]), at CDK-2/cyclin A (setting [4]), on CDK-9/Cyclin T1 (setting [2]) and at CDK-9/Cyclin T1 (setting [6]) was greater than 50% each time.
Take `O=Cc1ccc(-c2cnc3[nH]cc(-c4ccnc(NC5CCCC5)n4)c3c2)cc1` [1A33, 4-(3-(2-(cyclopentylamino)pyrimidin-4-yl)-1H-pyrrolo[2,3-b]pyridin-5-yl)benzaldehyde]: the results for the inhibition at 0.5 µM on CDK-2/cyclin A (setting [3]) and at CDK-9/Cyclin T1 (setting [5]) were greater than 70% and greater than 50%, respectively.
In the case of `Cc1cccc(-c2cnc3[nH]cc(-c4ccnc(NCCc5ccccc5)n4)c3c2)c1` [1B7, N-phenethyl-4-(5-(m-tolyl)-1H-pyrrolo[2,3-b]pyridin-3-yl)pyrimidin-2-amine], the inhibition at 0.5 µM on CDK-2/cyclin A (setting [1]), at CDK-2/cyclin A (setting [4]), at CDK-9/Cyclin T1 (setting [2]) and on CDK-9/Cyclin T1 (setting [6]) was greater than 70% each time.
For the molecule `c1ccc2c(-c3cnc4[nH]cc(-c5ccnc(NC6CC6)n5)c4c3)nccc2c1` [1A20, N-cyclopropyl-4-(5-(isoquinolin-1-yl)-1H-pyrrolo[2,3-b]pyridin-3-yl)pyrimidin-2-amine], the inhibition at 0.5 µM at CDK-2/cyclin A (setting [3]) was greater than 50%; on CDK-2/cyclin A (setting [4]) it was greater than 50%; on CDK-9/Cyclin T1 (setting [5]), less than 50%; on CDK-9/Cyclin T1 (setting [6]), greater than 50%.
In the case of `Fc1cccc(-c2cnc3[nH]cc(-c4ccnc(NC5CCCCCC5)n4)c3c2)c1` [1A45, N-cycloheptyl-4-(5-(3-fluorophenyl)-1H-pyrrolo[2,3-b]pyridin-3-yl)pyrimidin-2-amine], the inhibition at 0.5 µM on CDK-2/cyclin A (setting [3]) and at CDK-9/Cyclin T1 (setting [5]) was greater than 70% each time.
As for `c1ccc2c(-c3cnc4[nH]cc(-c5ccnc(NC6CCCCCC6)n5)c4c3)nccc2c1` [1A60, N-cycloheptyl-4-(5-(isoquinolin-1-yl)-1H-pyrrolo[2,3-b]pyridin-3-yl)pyrimidin-2-amine], the inhibition at 0.5 µM on CDK-2/cyclin A (setting [1]), on CDK-2/cyclin A (setting [4]), at CDK-9/Cyclin T1 (setting [2]) and at CDK-9/Cyclin T1 (setting [6]) was greater than 70% throughout.
With `FC(F)(F)c1cccc(-c2cnc3[nH]cc(-c4ccnc(NCCc5ccccc5)n4)c3c2)c1` [1B4, N-phenethyl-4-(5-(3-(trifluoromethyl)phenyl)-1H-pyrrolo[2,3-b]pyridin-3-yl)pyrimidin-2-amine], the inhibition at 0.5 µM at CDK-2/cyclin A (setting [1]), at CDK-2/cyclin A (setting [4]), on CDK-9/Cyclin T1 (setting [2]) and on CDK-9/Cyclin T1 (setting [6]) was greater than 70% in each case.
As for `FC(F)(F)Oc1ccc(-c2cnc3[nH]cc(-c4ccnc(NC5CC5)n4)c3c2)cc1` [1A3, N-cyclopropyl-4-(5-(4-(trifluoromethoxy)phenyl)-1H-pyrrolo[2,3-b]pyridin-3-yl)pyrimidin-2-amine], the inhibition at 0.5 µM at CDK-2/cyclin A (setting [3]), on CDK-2/cyclin A (setting [4]), on CDK-9/Cyclin T1 (setting [5]) and at CDK-9/Cyclin T1 (setting [6]) was greater than 70% throughout.
On to `Cc1cccc(-c2cnc3[nH]cc(-c4ccnc(NC5CC5)n4)c3c2)c1` [1A7, N-cyclopropyl-4-(5-(m-tolyl)-1H-pyrrolo[2,3-b]pyridin-3-yl)pyrimidin-2-amine], for which the inhibition at 0.5 µM at CDK-2/cyclin A (setting [3]), at CDK-2/cyclin A (setting [4]), at CDK-9/Cyclin T1 (setting [5]) and on CDK-9/Cyclin T1 (setting [6]) was greater than 70% each time.
Consider `Cc1cccc(-c2cnc3[nH]cc(-c4ccnc(NC5CCCCCC5)n4)c3c2)c1` [1A47, N-cycloheptyl-4-(5-(m-tolyl)-1H-pyrrolo[2,3-b]pyridin-3-yl)pyrimidin-2-amine], for which the inhibition at 0.5 µM on CDK-2/cyclin A (setting [3]), on CDK-2/cyclin A (setting [4]), on CDK-9/Cyclin T1 (setting [5]) and at CDK-9/Cyclin T1 (setting [6]) was greater than 50% in each case.
Take `COc1ccc2[nH]c(-c3cnc4[nH]cc(-c5ccnc(NC6CCCC6)n5)c4c3)cc2c1` [1A37, N-cyclopentyl-4-(5-(5-methoxy-1H-indol-2-yl)-1H-pyrrolo[2,3-b]pyridin-3-yl)pyrimidin-2-amine]: the inhibition at 0.5 µM on CDK-2/cyclin A (setting [3]) and on CDK-9/Cyclin T1 (setting [5]) was greater than 70% throughout.
Consider `c1ccc2sc(-c3cnc4[nH]cc(-c5ccnc(NC6CCCC6)n5)c4c3)cc2c1` [1A38, 4-(5-(benzo[b]thiophen-2-yl)-1H-pyrrolo[2,3-b]pyridin-3-yl)-N-cyclopentylpyrimidin-2-amine], for which the inhibition at 0.5 µM at CDK-2/cyclin A (setting [3]), at CDK-2/cyclin A (setting [4]), on CDK-9/Cyclin T1 (setting [5]) and at CDK-9/Cyclin T1 (setting [6]) was greater than 50% throughout.
Consider `CSc1ccc(-c2cnc3[nH]cc(-c4ccnc(NC5CCCCCC5)n4)c3c2)cc1` [1A48, N-cycloheptyl-4-(5-(4-(methylthio)phenyl)-1H-pyrrolo[2,3-b]pyridin-3-yl)pyrimidin-2-amine], for which the inhibition at 0.5 µM at CDK-2/cyclin A (setting [3]), at CDK-2/cyclin A (setting [4]), on CDK-9/Cyclin T1 (setting [5]) and at CDK-9/Cyclin T1 (setting [6]) was greater than 50% throughout.
Consider `c1ccc2sc(-c3cnc4[nH]cc(-c5ccnc(NC6CC6)n5)c4c3)cc2c1` [1A18, 4-(5-(benzo[b]thiophen-2-yl)-1H-pyrrolo[2,3-b]pyridin-3-yl)-N-cyclopropylpyrimidin-2-amine], for which the inhibition at 0.5 µM at CDK-2/cyclin A (setting [3]), at CDK-2/cyclin A (setting [4]), at CDK-9/Cyclin T1 (setting [5]) and at CDK-9/Cyclin T1 (setting [6]) was greater than 70% throughout.
For `FC(F)(F)Oc1ccc(-c2cnc3[nH]cc(-c4ccnc(NC5CCCCCC5)n4)c3c2)cc1` [1A43, N-cycloheptyl-4-(5-(4-(trifluoromethoxy)phenyl)-1H-pyrrolo[2,3-b]pyridin-3-yl)pyrimidin-2-amine], the inhibition at 0.5 µM at CDK-2/cyclin A (setting [3]), at CDK-2/cyclin A (setting [4]), on CDK-9/Cyclin T1 (setting [5]) and at CDK-9/Cyclin T1 (setting [6]) was greater than 50% throughout.
On to `c1ccc2[nH]c(-c3cnc4[nH]cc(-c5ccnc(NC6CC6)n5)c4c3)cc2c1` [1A19, 4-(5-(1H-indol-2-yl)-1H-pyrrolo[2,3-b]pyridin-3-yl)-N-cyclopropylpyrimidin-2-amine], for which the inhibition at 0.5 µM at CDK-2/cyclin A (setting [3]), on CDK-2/cyclin A (setting [4]), at CDK-9/Cyclin T1 (setting [5]) and at CDK-9/Cyclin T1 (setting [6]) was greater than 70% throughout.
`CSc1ccc(-c2cnc3[nH]cc(-c4ccnc(NC5CC5)n4)c3c2)cc1` [1A8, N-cyclopropyl-4-(5-(4-(methylthio)phenyl)-1H-pyrrolo[2,3-b]pyridin-3-yl)pyrimidin-2-amine]: the inhibition at 0.5 µM at CDK-2/cyclin A (setting [3]), at CDK-2/cyclin A (setting [4]), on CDK-9/Cyclin T1 (setting [5]) and on CDK-9/Cyclin T1 (setting [6]) was greater than 70% throughout.
For the molecule `c1ccc2[nH]c(-c3cnc4[nH]cc(-c5ccnc(NC6CCCC6)n5)c4c3)cc2c1` [1A39, 4-(5-(1H-indol-2-yl)-1H-pyrrolo[2,3-b]pyridin-3-yl)-N-cyclopentylpyrimidin-2-amine], the inhibition at 0.5 µM on CDK-2/cyclin A (setting [3]), on CDK-2/cyclin A (setting [4]), at CDK-9/Cyclin T1 (setting [5]) and at CDK-9/Cyclin T1 (setting [6]) was greater than 50% in each case.
